Patent US9617240B2 (TEIJIN PHARMA LIMITED, priority 2013, dated 2017)
pIC50: −log10 of the molar value.

Biological target: T1, oxidase type xanthine oxidase (derived from buttermilk) (Bos taurus, UniProt P80457)
T1 construct: oxidase type xanthine oxidase (derived from buttermilk, supplied by Calbiochem Novabiochem Corp.); purchased Calbiochem Novabiochem Corp; host or cells: buttermilk (natural source)
Test: Xanthine oxidase inhibitory activity (absorbance change at 290 nm)
Assay type: biochemical
Settings: xanthine substrate, 100 mM phosphate buffer, absorbance at 290 nm for 5 minutes; read-out: Inhibitory Activity (50% inhibitory concentration with respect to oxidase type xanthine oxidase)
Protocol: The xanthine oxidase inhibitory activity was measured for the compounds synthesized according to the above Examples.
After a test compound was dissolved in DMSO (manufactured by Sigma Co.) so that the concentration is 20 mM, the test compound was prepared and used at a desired concentration at the time of use.
The evaluation of the xanthine oxidase inhibitory activity of the compounds of the present invention was conducted by partially modifying the method described in the literature (Method Enzymatic Analysis, 1, 521-522, 1974). The present evaluation is based on the oxidase type xanthine oxidase inhibitory activity evaluation. That is, a xanthine (manufactured by Sigma Co.) solution prepared at 10 mM in advance using a 20 mM sodium hydroxide solution was adjusted to 30 μM using a 100 mM phosphate buffer solution, and 75 μL/well of each solution was added into a 96-well plate. Aliquots (1.5 μL/well) of each test sample, which was diluted with DMSO so that the concentration is 100 times the final concentration, were added into a 96-well plate, and after mixing, the absorbance at 290 nm was measured by a microplate reader SPECTRA MAX Plus 384 (manufactured by Molecular Devices, LLC). Subsequently, oxidase type xanthine oxidase (derived from buttermilk, supplied by Calbiochem Novabiochem Corp.) was prepared at 30.6 mU/mL using a 100 mM phosphate buffer solution and 73.5 μL/well of each solution was added. Immediately after mixing, the change in absorbance at 290 nm was measured for 5 minutes. The enzyme activity when DMSO was used instead of a test compound solution was defined as 100%, the inhibitory rate of the test compounds was calculated and the 50% inhibitory concentration with respect to oxidase type xanthine oxidase was calculated by fitting to the dose-response curve.
Note that the symbols (+, ++, +++) in the table represent inhibitory activity values as shown below.

T1 sequence (P80457 whole entry): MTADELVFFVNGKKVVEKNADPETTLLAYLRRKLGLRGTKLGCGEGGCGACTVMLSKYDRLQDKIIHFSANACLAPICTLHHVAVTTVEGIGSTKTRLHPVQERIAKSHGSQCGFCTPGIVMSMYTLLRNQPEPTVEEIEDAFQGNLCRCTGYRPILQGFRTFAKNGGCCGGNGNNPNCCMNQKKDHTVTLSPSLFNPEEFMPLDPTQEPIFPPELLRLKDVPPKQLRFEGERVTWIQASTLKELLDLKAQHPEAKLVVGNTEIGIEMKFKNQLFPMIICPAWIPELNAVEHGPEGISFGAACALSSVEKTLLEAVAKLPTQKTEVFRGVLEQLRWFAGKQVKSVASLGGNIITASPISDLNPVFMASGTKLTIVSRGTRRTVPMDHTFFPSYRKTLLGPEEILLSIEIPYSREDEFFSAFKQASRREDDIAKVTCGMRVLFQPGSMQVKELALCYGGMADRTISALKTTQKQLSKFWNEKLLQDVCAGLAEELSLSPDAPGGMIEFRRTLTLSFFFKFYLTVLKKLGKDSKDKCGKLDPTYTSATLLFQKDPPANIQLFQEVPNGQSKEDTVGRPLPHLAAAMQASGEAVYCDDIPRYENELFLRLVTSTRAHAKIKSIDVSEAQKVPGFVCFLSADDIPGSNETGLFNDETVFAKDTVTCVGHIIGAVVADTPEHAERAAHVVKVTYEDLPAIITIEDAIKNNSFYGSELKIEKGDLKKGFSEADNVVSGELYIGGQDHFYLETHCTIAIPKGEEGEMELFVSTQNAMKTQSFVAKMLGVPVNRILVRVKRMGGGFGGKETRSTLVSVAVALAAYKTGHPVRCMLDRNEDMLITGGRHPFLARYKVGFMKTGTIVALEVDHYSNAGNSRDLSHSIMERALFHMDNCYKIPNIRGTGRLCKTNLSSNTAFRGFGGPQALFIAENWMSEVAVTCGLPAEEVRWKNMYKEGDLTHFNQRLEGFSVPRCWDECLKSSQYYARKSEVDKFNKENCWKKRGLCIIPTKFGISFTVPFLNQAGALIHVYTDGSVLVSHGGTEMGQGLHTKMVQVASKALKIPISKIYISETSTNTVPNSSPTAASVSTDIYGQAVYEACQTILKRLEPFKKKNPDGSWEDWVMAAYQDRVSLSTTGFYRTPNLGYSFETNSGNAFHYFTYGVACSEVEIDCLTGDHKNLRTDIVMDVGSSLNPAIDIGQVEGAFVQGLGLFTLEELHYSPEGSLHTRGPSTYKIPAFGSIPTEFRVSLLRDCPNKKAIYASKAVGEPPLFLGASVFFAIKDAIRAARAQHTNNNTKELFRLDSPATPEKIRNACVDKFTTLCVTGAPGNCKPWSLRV

Compound	pIC50
CN(C)c1cccc(-c2cnc(-n3cc(C(=O)O)cn3)cc2C#N)c1 [Compound 67, 1-{4-cyano-5-[3-(dimethylamino)phenyl]pyridine-2-yl}-1H-pyrazole-4-carboxylic acid]	8.00 to 8.30
N#Cc1cc(-n2cc(C(=O)O)cn2)ncc1-c1ccc(Oc2ccccc2)cc1 [Compound 54, 1-[4-cyano-5-(4-phenoxyphenyl)pyridin-2-yl]-1H-pyrazole-4-carboxylic acid]	8.30 to 9.00
Cc1ccc(-c2ncc(-n3cc(C(=O)O)cn3)cc2C#N)cc1F [Compound 83, 1-[5-cyano-6-(3-fluoro-4-methylphenyl)pyridin-3-yl]-1H-pyrazole-4-carboxylic acid]	8.00 to 8.30
CCCOc1cccc(-c2cnc(-n3cc(C(=O)O)cn3)cc2C#N)c1 [Compound 31, 1-[4-cyano-5-(3-propoxyphenyl)pyridin-2-yl]-1H-pyrazole-4-carboxylic acid]	8.30 to 9.00
N#Cc1cc(-n2cc(C(=O)O)cn2)ncc1-c1cc(F)ccc1F [Compound 35, 1-[4-cyano-5-(2,5-difluorophenyl)pyridin-2-yl]-1H-pyrazole-4-carboxylic acid]	8.30 to 9.00
N#Cc1nc(-n2cc(C(=O)O)cn2)ccc1-c1ccc(F)cc1 [Compound 89]	≤ 8.00
N#Cc1cc(-n2cc(C(=O)O)cn2)cnc1-c1ccc(F)cc1F [Compound 77, 1-[5-cyano-6-(2,4-difluorophenyl)pyridin-3-yl]-1H-pyrazole-4-carboxylic acid]	≤ 8.00
N#Cc1cc(-n2cc(C(=O)O)cn2)ncc1-c1ccccc1 [Compound 1, 1-(4-cyano-5-phenylpyridin-2-yl)-1H-pyrazole-4-carboxylic acid]	8.30 to 9.00
Cc1cccc(-c2cnc(-n3cc(C(=O)O)cn3)cc2C#N)c1F [Compound 36, 1-[4-cyano-5-(2-fluoro-3-methylphenyl)pyridin-2-yl]-1H-pyrazole-4-carboxylic acid]	8.30 to 9.00
N#Cc1cc(-n2cc(C(=O)O)c(N)n2)ncc1-c1ccc(Cl)cc1 [Compound 100, 3-amino-1-[4-cyano-5-(4-chlorophenyl)pyridin-2-yl]-1H-pyrazole-4-carboxylic acid]	8.30 to 9.00
Cc1ccccc1-c1cnc(-n2cc(C(=O)O)cn2)cc1C#N [Compound 4, 1-[4-cyano-5-(2-methylphenyl)pyridin-2-yl]-1H-pyrazole-4-carboxylic acid]	8.00 to 8.30
CC(C)c1cccc(-c2cnc(-n3cc(C(=O)O)cn3)cc2C#N)c1 [Compound 48, 1-{4-cyano-5-[3-(propane-2-yl)phenyl]pyridine-2-yl}-1H-pyrazole-4-carboxylic acid]	8.30 to 9.00
COCc1ccc(-c2cnc(-n3cc(C(=O)O)cn3)cc2C#N)cc1 [Compound 55, 1-{4-cyano-5-[4-(methoxymethyl)phenyl]pyridin-2-yl}-1H-pyrazole-4-carboxylic acid]	8.30 to 9.00
N#Cc1cc(-n2cc(C(=O)O)cn2)ncc1-c1ccoc1 [Compound 23, 1-[4-cyano-5-(furan-3-yl)pyridin-2-yl]-1H-pyrazole-4-carboxylic acid]	8.00 to 8.30
N#Cc1nc(-n2cc(C(=O)O)cn2)ccc1-c1ccccc1 [Compound 85, 1-(6-cyano-5-phenylpyridin-2-yl)-1H-pyrazole-4-carboxylic acid]	≤ 8.00
N#Cc1nc(-n2cc(C(=O)O)cn2)ccc1-c1ccc(F)cc1F [Compound 90, 1-[6-cyano-5-(2,4-difluorophenyl)pyridin-2-yl]-1H-pyrazole-4-carboxylic acid]	≤ 8.00
CC(C)(C)c1ccc(-c2cnc(-n3cc(C(=O)O)cn3)cc2C#N)cc1 [Compound 53, 1-[5-(4-tert-butylphenyl)-4-cyanopyridin-2-yl]-1H-pyrazole-4-carboxylic acid]	8.30 to 9.00
N#Cc1cc(-n2cc(C(=O)O)cn2)cnc1-c1ccccc1F [Compound 76, 1-[5-cyano-6-(2-fluorophenyl)pyridin-3-yl]-1H-pyrazole-4-carboxylic acid]	≤ 8.00
COc1ccc(F)c(-c2ccc(-n3cc(C(=O)O)cn3)nc2C#N)c1 [Compound 91, 1-[6-cyano-5-(2-fluoro-5-methoxyphenyl)pyridin-2-yl]-1H-pyrazole-4-carboxylic acid]	8.00 to 8.30
N#Cc1cc(-n2cc(C(=O)O)cn2)cnc1-c1ccccc1 [Compound 75, 1-(5-cyano-6-phenylpyridin-3-yl)-1H-pyrazole-4-carboxylic acid]	≤ 8.00
COc1cccc(-c2cnc(-n3cc(C(=O)O)cn3)cc2C#N)c1F [Compound 19, 1-[4-cyano-5-(2-fluoro-3-methoxyphenyl)pyridin-2-yl]-1H-pyrazole-4-carboxylic acid]	8.30 to 9.00
N#Cc1cc(-n2cc(C(=O)O)cn2)ncc1-c1ccc(C(=O)c2ccccc2)cc1 [Compound 73, 1-[5-(4-benzoylphenyl)-4-cyanopyridin-2-yl]-1H-pyrazole-4-carboxylic acid]	8.30 to 9.00
N#Cc1cc(-n2cc(C(=O)O)cn2)ncc1-c1cccnc1 [Compound 25, 1-[4-cyano-5-(pyridin-3-yl)pyridin-2-yl]-1H-pyrazole-4-carboxylic acid]	≤ 8.00
N#Cc1cc(-n2cc(C(=O)O)c(N)n2)ncc1-c1ccc(F)cc1F [Compound 105, 3-amino-1-[4-cyano-5-(2,4-difluorophenyl)pyridin-2-yl]-1H-pyrazole-4-carboxylic acid]	8.30 to 9.00
COc1ccccc1-c1cnc(-n2cc(C(=O)O)cn2)cc1C#N [Compound 7, 1-[4-cyano-5-(2-methoxyphenyl)pyridin-2-yl]-1H-pyrazole-4-carboxylic]	8.30 to 9.00
CCOc1cccc(-c2cnc(-n3cc(C(=O)O)cn3)cc2C#N)c1 [Compound 30, 1-[4-cyano-5-(3-ethoxyphenyl)pyridin-2-yl]-1H-pyrazole-4-carboxylic acid]	8.30 to 9.00
CS(=O)(=O)Nc1ccc(-c2cnc(-n3cc(C(=O)O)cn3)cc2C#N)cc1 [Compound 69, 1-[4-cyano-5-(4-methanesulfonamidophenyl)pyridine-2-yl]-1H-pyrazole-4-carboxylic acid]	8.30 to 9.00

System: level of uric acid in the blood
Test: Hypouricemic effect in normal rats
Assay type: in vivo, Sprague-Dawley male rats
Settings: oral gavage, 1 mg/kg, 6 hours after administration
Protocol: A test compound suspended in a 0.5% methylcellulose solution was administered to 8 to 9 week-old Sprague-Dawley male rats (Japan Charles River Co.) by oral gavage administration using a feeding needle. After the blood was collected from the tail vein at 6 hours and 24 hours after administration, the plasma was separated. The level of uric acid in the blood sample was measured by uricase method using an absorption spectrometer as well as a uric acid determination kit (L type Wako UA F: Wako Pure Chemical Industries, Ltd.). The percentage of hypouricemic effect was determined by the following expression: Percentage of hypouricemic effect (%)=(Level of uric acid of the control animal−Level of uric acid of the test compound-administered animal)×100/Level of uric acid of the control animal.

Compound	Percentage of hypouricemic effect
N#Cc1cc(-n2cc(C(=O)O)cn2)ncc1-c1ccccc1 [Compound 1, 1-(4-cyano-5-phenylpyridin-2-yl)-1H-pyrazole-4-carboxylic acid]	≥ 70%

Same assay, conditions: oral gavage, 1 mg/kg, 24 hours after administration

Compound	Percentage of hypouricemic effect
N#Cc1cc(-n2cc(C(=O)O)cn2)ncc1-c1ccccc1 [Compound 1, 1-(4-cyano-5-phenylpyridin-2-yl)-1H-pyrazole-4-carboxylic acid]	≥ 70%

System: level of uric acid in the plasma
Test: Hypouricemic effect in beagle dogs
Assay type: in vivo
Settings: oral gavage, 3 mg/kg, 24 hours after administration
Protocol: The hypouricemic effect of the compound (I) in beagle dogs was confirmed. A test compound suspended in a 0.5% methyl cellulose solution was orally administered by gavage to beagle dogs (Kitayama Labes). Blood was drawn from the cephalic vein at 24 hours after administration and plasma was separated. The level of uric acid in the plasma sample was measured using an LC-MS/MS method and the percentage of hypouricemic effect was determined by the following expression: Percentage of hypouricemic effect (%)=(Level of uric acid of the control animal−Level of uric acid of the test compound-administered animal)×100/Level of uric acid of the control animal.

Compound	Percentage of hypouricemic effect
N#Cc1cc(-n2cc(C(=O)O)cn2)ncc1-c1ccccc1 [Compound 1, 1-(4-cyano-5-phenylpyridin-2-yl)-1H-pyrazole-4-carboxylic acid]	≥ 50%

System: level of uric acid in the blood
Test: Hypouricemic effect in Cebus apella monkeys
Assay type: in vivo
Settings: gavage, 1 mg/kg, 4 hours after administration
Protocol: To Cebus apella monkeys, test compounds suspended in 0.5% methylcellulose solution were administered by gavage into the stomach through the nasal cavity using a disposable catheter and a syringe. Blood was taken from the saphenous vein at 4 hours and 24 hours after the administration, after which the plasma was separated. The level of uric acid in the blood was measured using a uric acid measurement kit (L type Wako UA F: Wako Pure Chemical Industries, Ltd.) by the uricase method using an absorption spectrometer and the percentage of hypouricemic effect was determined by the following expression: Percentage of hypouricemic effect (%)=(Level of uric acid of the control animal−Level of uric acid of the test compound-administered animal)×100/Level of uric acid of the control animal.

Compound	Percentage of hypouricemic effect
N#Cc1cc(-n2cc(C(=O)O)cn2)ncc1-c1ccccc1 [Compound 1, 1-(4-cyano-5-phenylpyridin-2-yl)-1H-pyrazole-4-carboxylic acid]	≥ 50%

Same assay, conditions: gavage, 1 mg/kg, 24 hours after administration

Compound	Percentage of hypouricemic effect
N#Cc1cc(-n2cc(C(=O)O)cn2)ncc1-c1ccccc1 [Compound 1, 1-(4-cyano-5-phenylpyridin-2-yl)-1H-pyrazole-4-carboxylic acid]	≥ 50%
